Laboratory results as given in patent US5491151A, “Antitumor treatment method” (Kabushiki Kaisha Hayashibara Seibutsu Kagaku Kenkyujo, priority 1989, dated 1996).

Key:
Acute toxicity (LD50) = type: in vivo; details: mouse, in vivo, 7 days
Experimental: (§1) Either of Compounds No.1-8 in Table I was dissolved or suspended in saline containing 5% gum arabic, and a group of ddy mice, about 10-20 g each, received an intraperitoneal or oral administration of the resultant mixture occasionally through a stomach tube, followed by monitoring and counting dead mice for an additional 7 days to determine respective LD50 value in accordance with the Van der Waerden's method.

macrophage = assay: Activation of macrophage by cyanine dye (adherent ascites cells of treated mice cultured with Meth A ascitic tumor cells, 3H-thymidine incorporation); type: cell-based, BALB/c mice; details: 50 ng/0.2 ml/animal intraperitoneal to mice, cells collected two days later
Experimental: Two days after the administration, the ascites of the mice were extracted, and the cells which adhered onto plastic Petri dish were collected.
Control group was intraperitoneally administered with 0.2 ml saline.
Thereafter, the incorporation of ^3 H-thymidine in the tumor cell was determined by conventional method, and the growth inhibitory rate for tumor (%) was calculated with the following equation.

ddy mice = assay: Acute toxicity (LD50); type: in vivo; details: 7 days
Experimental: as §1

MC-1 cell = assay: Antitumor effect by growth inhibition of tumor (MC-1, with or without light-irradiation); type: in vivo, C57BL/6 mice; details: for Mean wet weight of tumor: 27th day, * significant at 5% or lower; for Rate of survival (%): 35th day
Experimental: Compounds No.1, 7 and 8 in Table I were evaluated for their antitumor activity using as the criterion the growth inhibitory effect on MC-1 cell, a methylcholanthrene-induced syngenic tumor.
Eight week-old female C57BL/6 mice were subcutaneously transplanted in their dorsum area with 1×10^5 cells/animal of MC-1 cell. Five days after the transplantation, a group of seven mice with a successful transplantation were subcutaneously administered with either Compound No.1, 7 or 8 in Table I twice a week over a period of 25 days while monitoring the mice.
One another group of mice were light-irradiated with 100 W medical infrared lamp (100 V) placed about one meter in apart immediately after every administration of either Compound No.1, 7 or 8.
Control group was subcutaneously administered with 0.2 ml saline in accordance with the same administration schedule.
On the 27th day after the transplantation, the wet weight of tumor was determined by the method in Y. Shimosato and N. Tamaoki, Human Cancer and Nude mice, pp. 321-323, published by Ishiyaku Publishers Inc., Tokyo, Japan (1982), as well as monitoring the rate (%) of survivals on the 35th day.

[1] = system: Meth A ascitic tumor cell; assay: Antitumor effect on tumor-bearing mouse (life-span increasing effect, Meth A ascitic tumor); type: in vivo, BALB/c mice; details: for Mean survival days: i.p. twice a week over 40 days, * significant to control at 5% or lower; for Increase in life-span (T/C %) / Survivals after 40 days: i.p.; for Increase in life-span (T/C %): control = 100; for Survivals after 40 days: group of seven mice
Experimental: Compounds No.1, 7 and 8 in Table I were evaluated for their antitumor activity using as the criterion the life-span increasing effect on tumor-bearing mice which had received the transplantation of Meth A ascitic tumor cell.
More particularly, 8 week-old male BALB/c mice were intraperitoneally transplanted with 1×10^5 cells/mouse of Meth A cell. Ten days after the transplantation, a group of seven mice with a successful transplantation were intraperitoneally administered with either Compound No.1, 7 or 8 in Table I twice a week over a period of 40 days while monitoring the mice.
Control group was intraperitoneally administered with 0.2 ml saline in accordance with the same administration schedule.
The rate of increase in life-span (T/C %) under the above conditions was calculated from the mean survival days found for the test group (T) and control group (C). [formula]

Meth A ascitic tumor = assay: Synergistic effect by the combination with hyperthermia (growth inhibition of Meth A tumor); type: in vivo, BALB/c mice; details: 20 ng/0.1 ml/animal s.c. twice a week; for Mean wet weight of tumor: 40th day; for Growth inhibitory rate for tumor (%): control = 100
Experimental: More particularly, 6 week-old BALB/c mice were subcutaneously transplanted in their femoral area with 2×10^5 cells/animal of Meth A cell. […] Immediately after every administration, the tumoral sites of the mice were soaked in about 42° C. water bath for about 60 minutes. On the 40th day after the transplantation, the mean wet weight of tumor was determined by the method in Experiment 2-2.
Separately, one of other groups was administered with either cyanine dye, and determined for its mean wet weight of tumor, while one another group was first administered with saline, then subjected to hyperthermia, followed by determining the mean wet weight of tumor.
Control group was subcutaneously injected with 0.1 ml saline in the femoral area.
The mean wet weights of tumor were put into the following equation to calculate the growth inhibitory rate for tumor (%) which was then used to evaluate any synergistic effect by the combination of cyanine dye and hyperthermia. [formula]

[2] = ip, intraperitoneal administration
[3] = intraperitoneal administration, 10080 min
[4] = 0.5 ng/0.2 ml/animal s.c., combined with light-irradiation
[5] = 0.5 ng/0.2 ml/animal s.c., no light-irradiation
[6] = 5 ng/0.2 ml/animal s.c., combined with light-irradiation
[7] = 5 ng/0.2 ml/animal s.c., no light-irradiation
[8] = 50 ng/0.2 ml/animal s.c., combined with light-irradiation
[9] = 50 ng/0.2 ml/animal s.c., no light-irradiation
[10] = combined with hyperthermia (about 42° C., 60 minutes)

| Structure (SMILES) | LD50 at 168 h (Acute toxicity (LD50); [2]) | LD50 at 168 h (Acute toxicity (LD50); po, oral administration) | Growth inhibitory rate (%) (macrophage) | LD50 (ddy mice; [3]) | LD50 (ddy mice; oral administration) | Mean wet weight of tumor (MC-1 cell; [4]) | Rate of survival (%) (MC-1 cell; [4]) | Mean wet weight of tumor (MC-1 cell; [5]) | Rate of survival (%) (MC-1 cell; [5]) | Mean wet weight of tumor (MC-1 cell; [6]) | Rate of survival (%) (MC-1 cell; [6]) | Mean wet weight of tumor (MC-1 cell; [7]) | Rate of survival (%) (MC-1 cell; [7]) | Mean wet weight of tumor (MC-1 cell; [8]) | Rate of survival (%) (MC-1 cell; [8]) | Mean wet weight of tumor (MC-1 cell; [9]) | Rate of survival (%) (MC-1 cell; [9]) | Mean survival days ([1]; 0.5 ng/0.2 ml/animal) | Increase in life-span (T/C %) ([1]; 0.5 ng/0.2 ml/animal) | Survivals after 40 days ([1]; 0.5 ng/0.2 ml/animal) | also measured |
| --- | --- | --- | --- | --- | --- | --- | --- | --- | --- | --- | --- | --- | --- | --- | --- | --- | --- | --- | --- | --- | --- |
| CN1C=CC(=CC=C(C=Cc2cc[n+](C)c3ccccc23)c2cc[n+](C)c3ccccc23)c2ccccc21 [compound 6] | 65 mg/kg | ≥ 4000 mg/kg | 41.8% |  |  |  |  |  |  |  |  |  |  |  |  |  |  |  |  |  |  |
| CCN1C=CC(=CC=C(C=Cc2cc[n+](CC)c3ccccc23)c2cc[n+](CC)c3ccccc23)c2ccccc21 [compound 3] |  |  | 32.3% | 31 mg/kg body weight | ≥ 4.0 g/kg body weight |  |  |  |  |  |  |  |  |  |  |  |  |  |  |  |  |
| CN1C(=CC=C(C=Cc2sc3ccccc3[n+]2C)c2sc3ccccc3[n+]2C)Sc2ccccc21 [Compound No.8] | 40 mg/kg | ≥ 4000 mg/kg | 27.3% |  |  | 2.9 ± 0.7 g | 100% | 3.6 ± 0.4 g | 71.4% | 0.5 ± 0.5 g | 100% | 2.9 ± 0.9 g | 100% | 1.2 ± 0.2 g | 100% | 3.5 ± 0.5 g | 85.7% | 34.4 ± 5.7 days | 116% | 1 | Mean survival days ([1]; 5 ng/0.2 ml/animal): 49.3 ± 5.6 days; Increase in life-span (T/C %) ([1]; 5 ng/0.2 ml/animal): 167%; Survivals after 40 days ([1]; 5 ng/0.2 ml/animal): 7; Mean survival days ([1]; 50 ng/0.2 ml/animal): 43.7 ± 4.0 days; Increase in life-span (T/C %) ([1]; 50 ng/0.2 ml/animal): 148%; Survivals after 40 days ([1]; 50 ng/0.2 ml/animal): 6; Mean wet weight of tumor (Meth A ascitic tumor; [10]): 0.90 ± 0.66 g; Growth inhibitory rate for tumor (%) (Meth A ascitic tumor; combined with hyperthermia): 18.3%; Mean wet weight of tumor (Meth A ascitic tumor; no hyperthermia): 3.40 ± 1.38 g; Growth inhibitory rate for tumor (%) (Meth A ascitic tumor; no hyperthermia): 69.2% |
| CCN1C=CC(=CC=C(C=Cc2cc[n+](CC)c3ccccc23)c2cc[n+](CC)c3ccccc23)c2ccccc21 [compound 2] |  |  | 44.5% | 30 mg/kg body weight | ≥ 4.0 g/kg body weight |  |  |  |  |  |  |  |  |  |  |  |  |  |  |  |  |
| CCN1C=CC(=CC=C(C=Cc2cc[n+](CC)c3ccccc23)c2cc[n+](CC)c3ccccc23)c2ccccc21 [Compound No.1, [bis-4-(ethylquinoline)][γ-4'-(1-ethylquinoline)] pentamethine cyanine diiodide] | 34 mg/kg | ≥ 4000 mg/kg | 25.1% |  |  | 2.8 ± 0.3 g | 100% | 4.1 ± 0.5 g | 85.7% | 0.8 ± 0.1 g | 100% | 3.1 ± 0.4 g | 100% | 1.5 ± 0.3 g | 100% | 3.7 ± 0.2 g | 100% | 36.1 ± 4.3 days | 122% | 2 | Mean survival days ([1]; 5 ng/0.2 ml/animal): 48.9 ± 4.2 days; Increase in life-span (T/C %) ([1]; 5 ng/0.2 ml/animal): 165%; Survivals after 40 days ([1]; 5 ng/0.2 ml/animal): 7; Mean survival days ([1]; 50 ng/0.2 ml/animal): 45.6 ± 4.2 days; Increase in life-span (T/C %) ([1]; 50 ng/0.2 ml/animal): 154%; Survivals after 40 days ([1]; 50 ng/0.2 ml/animal): 6; Mean wet weight of tumor (Meth A ascitic tumor; [10]): 0.12 ± 0.15 g; Growth inhibitory rate for tumor (%) (Meth A ascitic tumor; combined with hyperthermia): 2.4%; Mean wet weight of tumor (Meth A ascitic tumor; no hyperthermia): 3.24 ± 1.45 g; Growth inhibitory rate for tumor (%) (Meth A ascitic tumor; no hyperthermia): 65.9% |
| CCN1C=CC(=CC=C(C=Cc2cc[n+](CC)c3ccccc23)c2cc[n+](CC)c3ccccc23)c2ccccc21 [compound 4] |  |  | 36.2% | 37 mg/kg body weight | ≥ 4.0 g/kg body weight |  |  |  |  |  |  |  |  |  |  |  |  |  |  |  |  |
| CCN1C=CC(=CC=C(C=Cc2cc[n+](CC)c3ccccc23)c2cc[n+](CC)c3ccccc23)c2ccccc21 [compound 5] |  |  | 27.5% | 28 mg/kg body weight | ≥ 4.0 g/kg body weight |  |  |  |  |  |  |  |  |  |  |  |  |  |  |  |  |
| CCCCN1C=CC(=CC=C(C=Cc2cc[n+](CCCC)c3ccccc23)c2cc[n+](CCCC)c3ccccc23)c2ccccc21 | 84 mg/kg | ≥ 4000 mg/kg | 37.6% |  |  | 3.3 ± 0.6 g | 85.7% | 4.7 ± 1.0 g | 71.4% | 1.9 ± 0.8 g | 100% | 3.5 ± 0.8 g | 100% | 2.6 ± 0.5 g | 100% | 4.0 ± 0.4 g | 85.7% | 31.1 ± 4.2 days | 105% | 0 | Mean survival days ([1]; 5 ng/0.2 ml/animal): 42.9 ± 6.0 days; Increase in life-span (T/C %) ([1]; 5 ng/0.2 ml/animal): 145%; Survivals after 40 days ([1]; 5 ng/0.2 ml/animal): 5; Mean survival days ([1]; 50 ng/0.2 ml/animal): 39.9 ± 5.4 days; Increase in life-span (T/C %) ([1]; 50 ng/0.2 ml/animal): 135%; Survivals after 40 days ([1]; 50 ng/0.2 ml/animal): 4; Mean wet weight of tumor (Meth A ascitic tumor; [10]): 0.62 ± 0.45 g; Growth inhibitory rate for tumor (%) (Meth A ascitic tumor; combined with hyperthermia): 12.6%; Mean wet weight of tumor (Meth A ascitic tumor; no hyperthermia): 3.35 ± 1.75 g; Growth inhibitory rate for tumor (%) (Meth A ascitic tumor; no hyperthermia): 68.2% |
